# How the values were obtained:
# [1] = system: dorsal root ganglia (DRG) neurons
# Procedure: The nerve graft provides a supportive environment for axon growth. Removal of the nerve segment injures the peripheral axons of DRG neurons on one side (the “conditioning” lesion), whereas neurons on the opposite side are unaffected by the peripheral injury (“unconditioned”). At 2 weeks, a fluorescent tracer is injected 1 cm into the graft and is transported to the cell bodies of DRG neurons that are able to extend axons into the graft. The fluorescent tracer is taken up in the regenerated neurons only.
# Sixty four adult male Sprague-Dawley rats (200-300 gm) were subjected to surgery under ketamine/xylazine anesthesia, as previously described (FIG. 1.) The cervical cord was exposed through a C3 laminectomy and dural opening. Using a pair of sharp jeweler's forceps, a well-defined 1 mm-deep injury was made in both posterior columns. A sciatic nerve segment harvested from the left hindlimb then was implanted at the injury site using 10-0 nylon sutures in the pia. The other end of the graft was left to lie freely under the skin.
# Two weeks later, 5 μl of the retrograde tracer Fluorogold was placed into the nerve graft at a distance of 1 cm from the spinal cord. […] Rather, it is picked up solely by axons that have grown into the graft and is transported retrogradely in these axons.
# Twenty four hours later, the animal was deeply anesthetized and perfused through the heart with 4% paraformaldehyde. The L5 dorsal root ganglia (DRG) were removed bilaterally, postfixed, incubated in 30% sucrose overnight, and quick frozen in Histo Prep (TM). Sections were cut at 10 μm with a cryostat, floated on pretreated glass slides, and stored at −80° C.
# Animals were treated with intraperitoneal doses of (6S)-5-methyltetrahydrofolic acid ranging from 10 to 800 μg/kg, starting 3 days before the injury and given daily for 2 weeks.
# Dorsal root ganglion sections were examined under a fluorescence microscope and the number of fluorescently labeled cells was counted (see FIG. 1.B). The same sections were then counterstained with cresyl violet to reveal the cell somas of all neurons in the DRG. Fluorescently labeled cells and total cells were counted in treated and control animals by an observer unaware of the treatment conditions. The percentage of labeled DRG cells in each animal was calculated. To determine neuronal numbers accurately, the method of Abercombie was used, in which only cells with visible nucleoli are counted.
# The Wilcoxon rank-sum test and box-and-whiskers plots were used to compare the different groups.
# [2] = system: dorsal root ganglia (DRG) neurons; conditions: cited from earlier work
# [3] = regeneration of axons into peripheral nerve grafts after damage to the spinal cord
Structure (SMILES),"percentage of conditioned DRG neurons that were fluorescently labeled ([1]; 80 ug/kg daily, 3 days before injury to 2 weeks after, with conditioning peripheral nerve lesion, mean ± SEM, n=13)","mean neurons per ganglion regenerating, treatment combined with peripheral injury ([1]; 80 ug/kg, conditioned DRG) [neurons per ganglion]","spinal regeneration, conditioned animals compared with controls, highest dose ([1]; 800 ug/kg, conditioned)","spinal regeneration, unconditioned group, highest dose ([1]; 800 ug/kg, unconditioned)","regeneration in unconditioned DRG in treated animals (FIG. 2) ([1]; 10-400 g/kg as printed, intraperitoneal daily, all treated groups except 800 ug/kg)","mean labeled neurons per ganglion, unconditioned DRG ([1]; 80 N-g/kg intraperitoneal daily, from 3 days before injury for 2 weeks, absence of peripheral nerve injury, n=13)","percentage of labeled unconditioned DRG neurons ([1]; 80 N-g/kg intraperitoneal daily, absence of peripheral nerve injury, mean ± SEM, n=13)","regeneration of conditioned DRG at doses higher or lower than 80 ug/kg ([1]; conditioned, compared with the 80 ug/kg dose)","axons per ganglion regenerating, treatment without peripheral nerve injury ([1]; optimal dose of 80 ug/kg, unconditioned)","increase in regenerative efficacy [1, 3] [%]","regeneration observed with folic acid ([2]; mean ± SEM, n=15, Iskandar, Ann Neurol. 2004)","increase in regenerative efficacy (folic acid comparison) [2, 3]"
CN1c2c(nc(N)[nH]c2=O)NC[C@@H]1CNc1ccc(C(=O)N[C@@H](CCC(=O)O)C(=O)O)cc1 [(6S)-5-methyltetrahydrofolic acid],30.68%±2.97,980,decreased regeneration,no evidence of spinal regeneration,Measurable regeneration,320 labeled neurons per ganglion,10.25%±2.30,less effective,approximately 319 axons per ganglion,≥ 30,–,–
Nc1nc2ncc(CNc3ccc(C(=O)N[C@@H](CCC(=O)O)C(=O)O)cc3)nc2c(=O)[nH]1 [folic acid],–,–,–,–,–,–,–,–,–,–,16.26%±1.12,approximately 16%

# From US20110171134A1, “(6S)-5-METHYLTETRAHYDROFOLIC ACID FOR THERAPY OF TISSUE INJURY” (priority 2008, published 2011)
